Measurements reported in patent publication US8431615B2, “Dose forms” (priority 2004, dated 2013).

Experiments:
[1] = Predicted human liver exposures versus replicon assay IC50/IC90; conditions: dose range studied
From the text: Liver exposures to VX-950 were predicted based on the integrated preclinical and clinical data.

[2] = in vivo
HCV genotype 1 = experiment: Multiple-dose 14-day study, plasma HCV RNA (Roche COBAS TaqMan HCV/HPS assay); type: in vivo, human
From the text: Detection of HCV RNA was done using the Roche COBAS TaqMan HCV/HPS assay, available from Roche molecular Diagnostics. Other assays are available.

HCV NS3/4A protease = HCV NS3/4A protease (Hepatitis C virus genotype 1a, UniProt P27958); experiment: In vitro cleavage of TRIF by HCV NS3/4A protease; type: biochemical; conditions: 10 μM VX-950, tNS3 protease 0-4 μM
Procedure: The 35S methionine labeled coupled in vitro transcription/translation product of TRIF protein (as a substrate) was incubated with increasing concentration of tNS3 protease enzyme ranging from 0-4 μM either in the presence (Circles) or absence (Squares) of 10 μM VX-950, followed by SDS-PAGE and exposure to phosphorimager.

[3] = system: ALT (alanine aminotransferase); experiment: Multiple-dose 14-day study, serum ALT; conditions: 450 mg q8h, day 12; 5 out of 10 samples missing
WT-HCV protease-SEAP = conditions: SCID mice expressing WT-HCV protease-SEAP; cited from earlier work
[4] = system: AST (aspartate aminotransferase); experiment: Multiple-dose 14-day study, AST; type: in vivo, human; conditions: upon administration of VX-950
neopterin = experiment: Multiple-dose 14-day study, serum neopterin (competitive ELISA); conditions: 750 mg q8h, day 14; baseline 10.48±0.84 nmol/l; ULN 7.7 nmol/l
IFN-β promoter activity = experiment: IFN-β promoter luciferase activity in Sendai virus stimulated Huh7 cells expressing HCV protease; conditions: 10 μM VX-950, Sendai virus infected Huh7 cells, WT HCV protease

Sequence of HCV NS3/4A protease (P27958 1027-1208, other chains not shown): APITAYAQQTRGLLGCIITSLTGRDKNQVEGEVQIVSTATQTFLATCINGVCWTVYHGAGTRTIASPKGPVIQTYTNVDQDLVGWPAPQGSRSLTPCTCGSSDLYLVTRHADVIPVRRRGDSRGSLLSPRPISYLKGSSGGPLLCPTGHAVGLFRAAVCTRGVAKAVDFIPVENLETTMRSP

For `CCC[C@H](NC(=O)[C@@H]1[C@H]2CCC[C@H]2CN1C(=O)[C@@H](NC(=O)[C@@H](NC(=O)c1cnccn1)C1CCCCC1)C(C)(C)C)C(=O)C(=O)NC1CC1` [VX-950], the “predicted average liver concentration as multiple of the replicon assay IC50” value [1] was “up to 113 fold”, the “predicted average liver concentration as multiple of the replicon assay IC90” value [1] was “up to 57 fold” and the “severe (grade 3 or grade 4) adverse events” value [2] was “No adverse events were considered to be severe”. The “Maximum change from baseline in HCV RNA (log10 IU/mL), subjects in category” value (HCV genotype 1; category >−1 to <0, 450 mg q8 h (n = 10)) was 0 n, the “Maximum change from baseline in HCV RNA (log10 IU/mL), subjects in category” value (HCV genotype 1; category >−1 to <0, 750 mg q8 h (n = 8)) was 0 n and the “Maximum change from baseline in HCV RNA (log10 IU/mL), subjects in category” value (HCV genotype 1; category >−1 to <0, 1250 mg q12 h (n = 10)) was 0 n. The “Maximum change from baseline in HCV RNA (log10 IU/mL), subjects in category” value (HCV genotype 1; category >−2 to ≦−1, 450 mg q8 h (n = 10)) was 0 n, the “Maximum change from baseline in HCV RNA (log10 IU/mL), subjects in category” value (HCV genotype 1; category >−2 to ≦−1, 750 mg q8 h (n = 8)) was 0 n and the “Maximum change from baseline in HCV RNA (log10 IU/mL), subjects in category” value (HCV genotype 1; category >−2 to ≦−1, 1250 mg q12 h (n = 10)) was 0 n. The “Maximum change from baseline in HCV RNA (log10 IU/mL), subjects in category” value (HCV genotype 1; category >−3 to ≦−2, 450 mg q8 h (n = 10)) was 1 n, the “Maximum change from baseline in HCV RNA (log10 IU/mL), subjects in category” value (HCV genotype 1; category >−3 to ≦−2, 750 mg q8 h (n = 8)) was 0 n and the “Maximum change from baseline in HCV RNA (log10 IU/mL), subjects in category” value (HCV genotype 1; category >−3 to ≦−2, 1250 mg q12 h (n = 10)) was 1 n. The “Maximum change from baseline in HCV RNA (log10 IU/mL), subjects in category” value (HCV genotype 1; category >−4 to ≦−3, 450 mg q8 h (n = 10)) was 7 n, the “Maximum change from baseline in HCV RNA (log10 IU/mL), subjects in category” value (HCV genotype 1; category >−4 to ≦−3, 750 mg q8 h (n = 8)) was 3 n and the “Maximum change from baseline in HCV RNA (log10 IU/mL), subjects in category” value (HCV genotype 1; category >−4 to ≦−3, 1250 mg q12 h (n = 10)) was 9 n. The “Maximum change from baseline in HCV RNA (log10 IU/mL), subjects in category” value (HCV genotype 1; category >−5 to ≦−4, 450 mg q8 h (n = 10)) was 0 n, the “Maximum change from baseline in HCV RNA (log10 IU/mL), subjects in category” value (HCV genotype 1; category >−5 to ≦−4, 750 mg q8 h (n = 8)) was 3 n and the “Maximum change from baseline in HCV RNA (log10 IU/mL), subjects in category” value (HCV genotype 1; category >−5 to ≦−4, 1250 mg q12 h (n = 10)) was 0 n. For the same molecule, the “Maximum change from baseline in HCV RNA (log10 IU/mL), subjects in category” value (HCV genotype 1; category ≧−5, 450 mg q8 h (n = 10)) was 2 n, the “Maximum change from baseline in HCV RNA (log10 IU/mL), subjects in category” value (HCV genotype 1; category ≧−5, 750 mg q8 h (n = 8)) was 2 n and the “Maximum change from baseline in HCV RNA (log10 IU/mL), subjects in category” value (HCV genotype 1; category ≧−5, 1250 mg q12 h (n = 10)) was 0 n. The “drop in viral load, every patient” value (HCV genotype 1; during administration, all dose groups) was over 2 log10, the “subjects with a 3 log10 reduction in HCV-RNA” value (HCV genotype 1; within the first three days, of the 28 subjects receiving VX-950) was 26 and the “effect on in vitro cleavage of TRIF” value (HCV NS3/4A protease) was “inhibits in vitro cleavage of TRIF”. For the same molecule, the “ALT level, median” value [3] was 38 U/l, the “ALT level, range” value [3] was 25-125 U/l and the “effect on elevated ALT levels in animal model” value (WT-HCV protease-SEAP) was “ameliorates elevated ALT levels”. For the same molecule, the “effect on AST levels” value [4] was “decreased”, the mean neopterin (neopterin) was 7.32 ± 0.48 nmol/L and the “effect on IFNβ dependent gene expression” value (IFN-β promoter activity) was “restores IFNβ dependent gene expression”.
